Measured values reported in PubChem BioAssay AID2060622 (Molecular Pharmacology Branch, DTP, NCI, 2025).

Test system: 242566-281-R-J2-PDC complex spheroid viability
Assay: Anticancer human tumor 242566-281-R-J2-PDC patient-derived pancreatic carcinoma cell line growth inhibition [CLK]
Settings: for IC50: curve of first compound; for viability, T/C: stronger effect = lower value
How it was run: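 Multi-cell-type spheroids combined patient-derived tumor cells with HUVEC endothelial cells and human mesenchymal stem cells. Paired agents were dosed in half-log steps down from about clinical Cmax, or from 10 microM where Cmax was unknown.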

[1] = second compound 0.0316 µM, first compound 0.0316 µM
[2] = second compound 0.0316 µM, first compound 0.1 µM
[3] = second compound 0.0316 µM, first compound 0.316 µM
[4] = second compound 0.0316 µM, first compound 1 µM
[5] = second compound 0.0316 µM, first compound 3.16 µM
[6] = second compound 0.0316 µM, first compound 10 µM
[7] = second compound 0.1 µM, first compound 0.0316 µM
[8] = second compound 0.1 µM, first compound 0.1 µM
[9] = second compound 0.1 µM, first compound 0.316 µM
[10] = second compound 0.1 µM, first compound 1 µM
[11] = second compound 0.1 µM, first compound 3.16 µM
[12] = second compound 0.1 µM, first compound 10 µM
[13] = second compound 0.316 µM, first compound 0.0316 µM
[14] = second compound 0.316 µM, first compound 0.1 µM
[15] = second compound 0.316 µM, first compound 0.316 µM
[16] = second compound 0.316 µM, first compound 1 µM
[17] = second compound 0.316 µM, first compound 3.16 µM
[18] = second compound 0.316 µM, first compound 10 µM
[19] = second compound 1 µM, first compound 0.0316 µM
[20] = second compound 1 µM, first compound 0.1 µM
[21] = second compound 1 µM, first compound 0.316 µM
[22] = second compound 1 µM, first compound 1 µM
[23] = second compound 1 µM, first compound 3.16 µM
[24] = second compound 1 µM, first compound 10 µM
[25] = second compound 3.16 µM, first compound 0.0316 µM
[26] = second compound 3.16 µM, first compound 0.1 µM
[27] = second compound 3.16 µM, first compound 0.316 µM
[28] = second compound 3.16 µM, first compound 1 µM
[29] = second compound 3.16 µM, first compound 3.16 µM
[30] = second compound 3.16 µM, first compound 10 µM
[31] = second compound 10 µM, first compound 0.0316 µM
[32] = second compound 10 µM, first compound 0.1 µM
[33] = second compound 10 µM, first compound 0.316 µM
[34] = second compound 10 µM, first compound 1 µM
[35] = second compound 10 µM, first compound 3.16 µM
[36] = second compound 10 µM, first compound 10 µM
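Also: spheroids exposed to compounds for 7 days before readout.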
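For viability, T/C in this document: 100% = DMSO vehicle control wells.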

`CC1(C)CCC(CN2CCN(c3ccc(C(=O)NS(=O)(=O)c4ccc(NCC5CCOCC5)c([N+](=O)[O-])c4)c(Oc4cnc5[nH]ccc5c4)c3)CC2)=C(c2ccc(Cl)cc2)C1` + CN1CCN(c2cc(C(=O)Nc3cc4cc(-c5cnn(C)c5)ccc4cn3)ccn2)CC1 gave an IC50 (second compound 0.0316 µM) of 6.54 µM, an IC50 (second compound 0.1 µM) of 6.08 µM and an IC50 (second compound 0.316 µM) of less than 0.0316 µM. For the same molecule, the IC50 (second compound 1 µM) was less than 0.0316 µM, the IC50 (second compound 3.16 µM) was less than 0.0316 µM and the IC50 (second compound 10 µM) was less than 0.0316 µM. It also gave a viability, T/C [1] of 109%, a viability, T/C [2] of 109% and a viability, T/C [3] of 101%. For the same molecule, the viability, T/C [4] was 112%, the viability, T/C [5] was 109% and the viability, T/C [6] was 16.1%. For the same molecule, the viability, T/C [7] was 100%, the viability, T/C [8] was 92.8% and the viability, T/C [9] was 93.2%. For the same molecule, the viability, T/C [10] was 96.9%, the viability, T/C [11] was 107% and the viability, T/C [12] was 13.4%. It also gave a viability, T/C [13] of 38.1%, a viability, T/C [14] of 34% and a viability, T/C [15] of 31.9%. The viability, T/C [16] was 38.9%, the viability, T/C [17] was 36.2% and the viability, T/C [18] was 5.57%. It also gave a viability, T/C [19] of 5.27%, a viability, T/C [20] of 5.79% and a viability, T/C [21] of 6.15%. For the same molecule, the viability, T/C [22] was 6.22%, the viability, T/C [23] was 5.21% and the viability, T/C [24] was 1.17%. It also gave a viability, T/C [25] of 7.94%, a viability, T/C [26] of 7.2% and a viability, T/C [27] of 8.15%. It also gave a viability, T/C [28] of 7.96%, a viability, T/C [29] of 6.33% and a viability, T/C [30] of 1.38%. It also gave a viability, T/C [31] of 2.16%, a viability, T/C [32] of 2.09% and a viability, T/C [33] of 1.92%. The viability, T/C [34] was 2.08%, the viability, T/C [35] was 1.25% and the viability, T/C [36] was 0.24%.

`CC1COCCN1c1cc(C2(S(C)(=N)=O)CC2)nc(-c2ccnc3[nH]ccc23)n1` (centres undefined) + CN1CCN(c2cc(C(=O)Nc3cc4cc(-c5cnn(C)c5)ccc4cn3)ccn2)CC1 was tested, and the IC50 (second compound 0.0316 µM) was 6.19 µM, the IC50 (second compound 0.1 µM) was 4.5 µM and the IC50 (second compound 0.316 µM) was less than 0.0316 µM. It also gave an IC50 (second compound 1 µM) of less than 0.0316 µM, an IC50 (second compound 3.16 µM) of less than 0.0316 µM and an IC50 (second compound 10 µM) of less than 0.0316 µM. For the same molecule, the viability, T/C [1] was 119%, the viability, T/C [2] was 103% and the viability, T/C [3] was 97%. The viability, T/C [4] was 104%, the viability, T/C [5] was 73.8% and the viability, T/C [6] was 31.6%. It also gave a viability, T/C [7] of 103%, a viability, T/C [8] of 97.8% and a viability, T/C [9] of 97.3%. For the same molecule, the viability, T/C [10] was 83.1%, the viability, T/C [11] was 62.6% and the viability, T/C [12] was 22.6%. It also gave a viability, T/C [13] of 36.3%, a viability, T/C [14] of 28.3% and a viability, T/C [15] of 31.2%. The viability, T/C [16] was 20.4%, the viability, T/C [17] was 17.5% and the viability, T/C [18] was 8.72%. It also gave a viability, T/C [19] of 4.95%, a viability, T/C [20] of 4.97% and a viability, T/C [21] of 4.82%. The viability, T/C [22] was 5.18%, the viability, T/C [23] was 5.87% and the viability, T/C [24] was 6.94%. The viability, T/C [25] was 7.02%, the viability, T/C [26] was 7.62% and the viability, T/C [27] was 8.37%. It also gave a viability, T/C [28] of 7.12%, a viability, T/C [29] of 8.01% and a viability, T/C [30] of 9.37%. The viability, T/C [31] was 2.02%, the viability, T/C [32] was 1.85% and the viability, T/C [33] was 2.1%. It also gave a viability, T/C [34] of 1.7%, a viability, T/C [35] of 1.8% and a viability, T/C [36] of 1.35%.
